Tests used:
in vitro = details: for % Remaining: with NADPH and AST-3021
Procedure: (1) Compound A for test, progesterone positive control, and 100 mM stock solutions of AST-3021 inhibitor were prepared and stored in the freezer (−10° C. to −30° C.).
1) Negative control group: at different time points (0 and 60 min), 30 μL/well of hepatocyte cytosol suspension containing 7.5 μM of sample for test was distributed in a 96-well plate. Three replicate wells were prepared in parallel.
2) Positive control group: at different time points (0, 5, 15, 30, 45 and 60 min), 30 μL/well of hepatocyte cytosol suspension containing 7.5 μM of the positive control was distributed in a 96-well plate. Three replicate wells were prepared in parallel.
3) Normal reaction group: at different time points (0, 5, 15, 30, 45 and 60 min), 30 μL/well of hepatocyte cytosol suspension containing 7.5 μM of sample for test was distributed in a 96-well plate. Three replicate wells were prepared in parallel.
4) Inhibition reaction group: at different time points (0, 5, 15, 30, 45 and 60 min), 30 μL/well of hepatocyte cytosol suspension containing […] of sample for test and 4.5 μM of the inhibitor was distributed in a 96-well plate. Three replicate wells were prepared in parallel.
6) 0 min samples: after 150 μL/well of acetonitrile containing the internal standard was added, then 15 μL/well of pre-heated NADPH working solution was added to the samples of normal reaction group, inhibition reaction group and positive control group, and 15 μL/well of pre-heated potassium phosphate buffer was added to the samples of negative control group.
7) Other samples (5, 15, 30, 45 and 60 min): for normal reaction group, inhibition reaction group and positive control group, 15 μL/well of pre-heated NADPH working solution was added to start the reaction; for negative control group, 15 μL/well of pre-heated potassium phosphate buffer was added. The reaction plates were then continued to incubate in a 37° C. water bath and the reactions were stopped by the addition of 150 μL/well of stop solution at the corresponding time points (5, 15, 30, 45 and 60 min).
The concentration of analyte in each sample was expressed as a peak area ratio (peak area analyte/peak areainternal standard), then the peak area ratio at 0 min was used as a reference to calculate the % Remaining at each time point of the incubation, and the ln logarithmic value of the % Remaining was linearly fitted to the incubation time and the half-life was calculated according to the following formula.
In the absence of AST-3021, 5 μM of progesterone was co-incubated with 2 mM of NADPH and 1 mg/mL of hepatocyte cytosol for 0-60 min as a positive control.

[1] = tested on: human liver cancer LI6652; assay: In vivo pharmacodynamics, liver cancer LI6652 subcutaneous xenograft PDX model; set-up: species or system BALB/c nude mice; details: 5 mg/kg i.p. QDx5, 2 days off, 2 weeks off, 2 cycles; Day 28

**Q.** Which Metabolic parameter k (in vitro; monkey, 2 mM NADPH, no AST-3021 (normal reaction / positive control group), 5 μM) does the source give for `O=[N+]([O-])c1ccc(C(OP(=O)(N2CC2)N2CC2)C(F)(F)F)cc1Oc1ccc(-c2ccc(F)cc2)c(F)c1` (racemic) [Compound A] here?
**A.** 0.0046

**Q.** What about the “average % Remaining” value (in vitro; monkey, 2 mM NADPH, no AST-3021 (normal reaction / positive control group), 5 μM, 0 min) of the same molecule?
**A.** 100.00%

**Q.** And the “average % Remaining” value (in vitro; monkey, 2 mM NADPH, no AST-3021 (normal reaction / positive control group), 5 μM, 5 min)?
**A.** 98.89%

**Q.** And the “average % Remaining” value (in vitro; monkey, 2 mM NADPH, no AST-3021 (normal reaction / positive control group), 5 μM, 15 min)?
**A.** 94.52%

**Q.** What about the “average % Remaining” value (in vitro; monkey, 2 mM NADPH, no AST-3021 (normal reaction / positive control group), 5 μM, 30 min) of the same molecule?
**A.** 89.81%

**Q.** And the “average % Remaining” value (in vitro; monkey, 2 mM NADPH, no AST-3021 (normal reaction / positive control group), 5 μM, 45 min)?
**A.** 83.43%

**Q.** What about the “average % Remaining” value (in vitro; monkey, 2 mM NADPH, no AST-3021 (normal reaction / positive control group), 5 μM, 60 min) of the same molecule?
**A.** 73.28%

**Q.** And the Metabolic parameter k (in vitro; monkey, negative control group (no NADPH, no AST-3021), 5 μM)?
**A.** 0.0040

**Q.** And the “average % Remaining” value (in vitro; monkey, negative control group (no NADPH, no AST-3021), 5 μM, 0 min)?
**A.** 100.00%

**Q.** What about the “average % Remaining” value (in vitro; monkey, negative control group (no NADPH, no AST-3021), 5 μM, 60 min) of the same molecule?
**A.** 78.57%

**Q.** And the “average % Remaining” value (in vitro; mouse, 60 min, no NADPH, no AST-3021)?
**A.** 83.01%

**Q.** And the “average % Remaining” value (in vitro; mouse, 60 min, with NADPH, no AST-3021)?
**A.** 88.89%

**Q.** What about the “% Remaining” value (in vitro; mouse) of the same molecule?
**A.** 74.94%

**Q.** What about the Metabolic parameter k (in vitro; mouse, 2 mM NADPH + 3 μM AST-3021 (inhibition reaction group), 5 μM) of the same molecule?
**A.** 0.0041

**Q.** What about the “average % Remaining” value (in vitro; mouse, 2 mM NADPH + 3 μM AST-3021 (inhibition reaction group), 5 μM, 0 min) of the same molecule?
**A.** 100.00%

**Q.** And the “average % Remaining” value (in vitro; mouse, 2 mM NADPH + 3 μM AST-3021 (inhibition reaction group), 5 μM, 5 min)?
**A.** 90.76%

**Q.** And the “average % Remaining” value (in vitro; mouse, 2 mM NADPH + 3 μM AST-3021 (inhibition reaction group), 5 μM, 15 min)?
**A.** 87.29%

**Q.** What about the “average % Remaining” value (in vitro; mouse, 2 mM NADPH + 3 μM AST-3021 (inhibition reaction group), 5 μM, 30 min) of the same molecule?
**A.** 85.00%

**Q.** And the “average % Remaining” value (in vitro; mouse, 2 mM NADPH + 3 μM AST-3021 (inhibition reaction group), 5 μM, 45 min)?
**A.** 82.33%

**Q.** And the “average % Remaining” value (in vitro; mouse, 2 mM NADPH + 3 μM AST-3021 (inhibition reaction group), 5 μM, 60 min)?
**A.** 74.94%

**Q.** What about the Metabolic parameter k (in vitro; mouse, 2 mM NADPH, no AST-3021 (normal reaction / positive control group), 5 μM) of the same molecule?
**A.** 0.0014

**Q.** And the “average % Remaining” value (in vitro; mouse, 2 mM NADPH, no AST-3021 (normal reaction / positive control group), 5 μM, 0 min)?
**A.** 100.00%

**Q.** And the “average % Remaining” value (in vitro; mouse, 2 mM NADPH, no AST-3021 (normal reaction / positive control group), 5 μM, 5 min)?
**A.** 99.18%

**Q.** What about the “average % Remaining” value (in vitro; mouse, 2 mM NADPH, no AST-3021 (normal reaction / positive control group), 5 μM, 15 min) of the same molecule?
**A.** 109.17%

**Q.** And the “average % Remaining” value (in vitro; mouse, 2 mM NADPH, no AST-3021 (normal reaction / positive control group), 5 μM, 30 min)?
**A.** 95.86%

**Q.** What about the “average % Remaining” value (in vitro; mouse, 2 mM NADPH, no AST-3021 (normal reaction / positive control group), 5 μM, 45 min) of the same molecule?
**A.** 95.38%

**Q.** What about the “average % Remaining” value (in vitro; mouse, 2 mM NADPH, no AST-3021 (normal reaction / positive control group), 5 μM, 60 min) of the same molecule?
**A.** 88.89%

**Q.** What about the Metabolic parameter k (in vitro; mouse, negative control group (no NADPH, no AST-3021), 5 μM) of the same molecule?
**A.** 0.0031

**Q.** What about the “average % Remaining” value (in vitro; mouse, negative control group (no NADPH, no AST-3021), 5 μM, 0 min) of the same molecule?
**A.** 100.00%

**Q.** And the “average % Remaining” value (in vitro; mouse, negative control group (no NADPH, no AST-3021), 5 μM, 60 min)?
**A.** 83.01%

**Q.** And the “average % Remaining” value (in vitro; rat, 60 min, no NADPH, no AST-3021)?
**A.** 68.42%

**Q.** What about the “average % Remaining” value (in vitro; rat, 60 min, with NADPH, no AST-3021) of the same molecule?
**A.** 71.72%

**Q.** And the “% Remaining” value (in vitro; rat)?
**A.** 63.81%

**Q.** And the Metabolic parameter k (in vitro; rat, 2 mM NADPH + 3 μM AST-3021 (inhibition reaction group), 5 μM)?
**A.** 0.0068

**Q.** What about the “average % Remaining” value (in vitro; rat, 2 mM NADPH + 3 μM AST-3021 (inhibition reaction group), 5 μM, 0 min) of the same molecule?
**A.** 100.00%

**Q.** And the “average % Remaining” value (in vitro; rat, 2 mM NADPH + 3 μM AST-3021 (inhibition reaction group), 5 μM, 5 min)?
**A.** 88.10%

**Q.** And the “average % Remaining” value (in vitro; rat, 2 mM NADPH + 3 μM AST-3021 (inhibition reaction group), 5 μM, 15 min)?
**A.** 86.23%

**Q.** What about the “average % Remaining” value (in vitro; rat, 2 mM NADPH + 3 μM AST-3021 (inhibition reaction group), 5 μM, 30 min) of the same molecule?
**A.** 83.84%

**Q.** What about the “average % Remaining” value (in vitro; rat, 2 mM NADPH + 3 μM AST-3021 (inhibition reaction group), 5 μM, 45 min) of the same molecule?
**A.** 78.06%

**Q.** And the “average % Remaining” value (in vitro; rat, 2 mM NADPH + 3 μM AST-3021 (inhibition reaction group), 5 μM, 60 min)?
**A.** 63.81%

**Q.** What about the Metabolic parameter k (in vitro; rat, 2 mM NADPH, no AST-3021 (normal reaction / positive control group), 5 μM) of the same molecule?
**A.** 0.0053

**Q.** What about the “average % Remaining” value (in vitro; rat, 2 mM NADPH, no AST-3021 (normal reaction / positive control group), 5 μM, 0 min) of the same molecule?
**A.** 100.00%

**Q.** And the “average % Remaining” value (in vitro; rat, 2 mM NADPH, no AST-3021 (normal reaction / positive control group), 5 μM, 5 min)?
**A.** 90.07%

**Q.** What about the “average % Remaining” value (in vitro; rat, 2 mM NADPH, no AST-3021 (normal reaction / positive control group), 5 μM, 15 min) of the same molecule?
**A.** 90.26%

**Q.** And the “average % Remaining” value (in vitro; rat, 2 mM NADPH, no AST-3021 (normal reaction / positive control group), 5 μM, 30 min)?
**A.** 84.80%

**Q.** What about the “average % Remaining” value (in vitro; rat, 2 mM NADPH, no AST-3021 (normal reaction / positive control group), 5 μM, 45 min) of the same molecule?
**A.** 81.99%

**Q.** And the “average % Remaining” value (in vitro; rat, 2 mM NADPH, no AST-3021 (normal reaction / positive control group), 5 μM, 60 min)?
**A.** 71.72%

**Q.** And the Metabolic parameter k (in vitro; rat, negative control group (no NADPH, no AST-3021), 5 μM)?
**A.** 0.0063

**Q.** And the “average % Remaining” value (in vitro; rat, negative control group (no NADPH, no AST-3021), 5 μM, 0 min)?
**A.** 100.00%

**Q.** And the “average % Remaining” value (in vitro; rat, negative control group (no NADPH, no AST-3021), 5 μM, 60 min)?
**A.** 68.42%

**Q.** And the “TGI (%)” value [1]?
**A.** 99.86%

Reference: US20260159536A1, “AKR1C3-ACTIVATED DNA ALKYLATING AGENT, AND MEDICAL APPLICATION THEREOF” (ASCENTAWITS PHARMACEUTICALS, LTD., priority 2021, published 2026)
